From PubChem BioAssay AID248 (DTP/NCI, 2004)
“And” between values parts separate entries of the source, which are not always exact repeats. Equal entries are not always repeated. Toxic doses and inconclusive results are not listed. No stated cut-off is given here; in the data, active means T/C of 150% or more; inactive means T/C below 125%.

System: L1210 leukemia ip in BDF1 mice, survival T/C
Experiment: NCI In Vivo Anticancer Drug Screen. Data for tumor model L1210 Leukemia (intraperitoneal) in B6D2F1 (BDF1) mice
Conditions: endpoint: mean survival time, higher = longer survival
How it was run: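 Mice bearing the transplanted tumor received compound or vehicle. Survival of the treated group was divided by that of the vehicle-treated control group to give the ratio.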

[1] = dose: 100.0 mg/kg/injection, schedule: Q04DX002 (ip), vehicle: Klucel (hydroxypropylcellulose) (HPC)
[2] = dose: 200.0 mg/kg/injection, schedule: Q04DX002 (ip), vehicle: Klucel (hydroxypropylcellulose) (HPC)
[3] = dose: 400.0 mg/kg/injection, schedule: Q04DX002 (ip), vehicle: Klucel (hydroxypropylcellulose) (HPC)
[4] = dose: 100.0 mg/kg/injection, schedule: Q01DX009 (ip), vehicle: Klucel (hydroxypropylcellulose) (HPC)
[5] = dose: 100.0 mg/kg/injection, schedule: Q04DX003 (ip), vehicle: Klucel (hydroxypropylcellulose) (HPC)
[6] = dose: 200.0 mg/kg/injection, schedule: Q01DX009 (ip), vehicle: Klucel (hydroxypropylcellulose) (HPC)
[7] = dose: 200.0 mg/kg/injection, schedule: Q04DX003 (ip), vehicle: Klucel (hydroxypropylcellulose) (HPC)
[8] = dose: 400.0 mg/kg/injection, schedule: Q01DX009 (ip), vehicle: Klucel (hydroxypropylcellulose) (HPC)
[9] = dose: 400.0 mg/kg/injection, schedule: Q04DX003 (ip), vehicle: Klucel (hydroxypropylcellulose) (HPC)
[10] = dose: 50.0 mg/kg/injection, schedule: Q01DX001 (ip), vehicle: carboxymethylcellulose (CMC)
[11] = dose: 100.0 mg/kg/injection, schedule: Q01DX001 (ip), vehicle: carboxymethylcellulose (CMC)
[12] = dose: 200.0 mg/kg/injection, schedule: Q01DX001 (ip), vehicle: carboxymethylcellulose (CMC)
[13] = dose: 400.0 mg/kg/injection, schedule: Q01DX001 (ip), vehicle: carboxymethylcellulose (CMC)
[14] = dose: 100.0 mg/kg/injection, schedule: Q01DX001 (ip), vehicle: saline
[15] = dose: 200.0 mg/kg/injection, schedule: Q01DX001 (ip), vehicle: saline
[16] = dose: 100.0 mg/kg/injection, schedule: Q01DX001 (ip), vehicle: Klucel (hydroxypropylcellulose) (HPC)
[17] = dose: 200.0 mg/kg/injection, schedule: Q01DX001 (ip), vehicle: Klucel (hydroxypropylcellulose) (HPC)
[18] = dose: 100.0 mg/kg/injection, schedule: Q01DX009 (ip), vehicle: saline with Tween-80
[19] = dose: 100.0 mg/kg/injection, schedule: Q04DX003 (ip), vehicle: saline sonified
[20] = dose: 200.0 mg/kg/injection, schedule: Q04DX003 (ip), vehicle: saline sonified
[21] = dose: 400.0 mg/kg/injection, schedule: Q04DX003 (ip), vehicle: saline sonified

Measured: T/C

CC(=O)OCC(CS(=O)c1c(Cl)c(Cl)c(Cl)c(Cl)c1Cl)OC(C)=O (stereo not drawn)
inactive: dose: 25.0 mg/kg/injection, schedule: Q04DX002 (ip), vehicle: Klucel (hydroxypropylcellulose) (HPC) 93 % of control | dose: 50.0 mg/kg/injection, schedule: Q04DX002 (ip), vehicle: Klucel (hydroxypropylcellulose) (HPC) 86 % of control | [1] 106 % of control and 89 % of control | [2] 97 % of control and 124 % of control | [3] 109 % of control

O=C(NCCCl)NC1c2ccccc2-c2ccccc21
inactive: [4] 105 % of control | [5] 96 % of control and 89 % of control | [6] 92 % of control | [7] 102 % of control | [8] 106 % of control | [9] 98 % of control and 86 % of control

Cc1cc(=O)c2cc(N)ccc2[nH]1
inactive: dose: 100.0 mg/kg/injection, schedule: Q01DX009 (ip), vehicle: water 98 % of control | dose: 100.0 mg/kg/injection, schedule: Q04DX003 (ip), vehicle: water 107 % of control | dose: 200.0 mg/kg/injection, schedule: Q01DX009 (ip), vehicle: water 98 % of control | dose: 200.0 mg/kg/injection, schedule: Q04DX003 (ip), vehicle: water 113 % of control | dose: 400.0 mg/kg/injection, schedule: Q01DX009 (ip), vehicle: water 94 % of control | dose: 400.0 mg/kg/injection, schedule: Q04DX003 (ip), vehicle: water 116 % of control

CN(C)C(=O)C(=O)c1cn(C)c2ccccc12
inactive: [10] 95 % of control | [11] 109 % of control | [12] 93 % of control | [13] 101 % of control

O=[N+]([O-])C=C([SH2+])[SH2+].O=[N+]([O-])C=C([SH2+])[SH2+].[Pt+2].c1ccc(C[P+](c2ccccc2)(c2ccccc2)c2ccccc2)cc1
inactive: dose: 50.0 mg/kg/injection, schedule: Q01DX001 (ip), vehicle: saline 95 % of control | [14] 110 % of control | [15] 96 % of control

NC(=O)c1ccc(F)cc1
inactive: [11] 95 % of control | [12] 104 % of control | [13] 98 % of control

CCOC(=O)Nc1cc(Cl)ccc1OC
inactive: [4] 107 % of control | [6] 91 % of control | [8] 93 % of control

O=NN(CCCl)C(=O)Nc1ccc2c3c(cccc13)-c1ccccc1-2
inactive: dose: 118.0 mg/kg/injection, schedule: Q01DX009 (ip), vehicle: carboxymethylcellulose (CMC) 111 % of control | dose: 177.0 mg/kg/injection, schedule: Q01DX009 (ip), vehicle: carboxymethylcellulose (CMC) 119 % of control | dose: 266.0 mg/kg/injection, schedule: Q01DX009 (ip), vehicle: carboxymethylcellulose (CMC) 113 % of control | dose: 600.0 mg/kg/injection, schedule: Q01DX001 (ip), vehicle: carboxymethylcellulose (CMC) 117 % of control | dose: 600.0 mg/kg/injection, schedule: Q01DX009 (ip), vehicle: carboxymethylcellulose (CMC) 98 % of control

CC(=O)/C=C/c1ccc([N+](=O)[O-])o1
inactive: [16] 116 % of control | [17] 121 % of control

COc1ccc2c(c1)CCC1(C)C2=CC(=O)/C1=C\[O-].COc1ccc2c(c1)CCC1(C)C2=CC(=O)/C1=C\[O-].[Cu+2] (stereo not drawn)
inactive: dose: 25.0 mg/kg/injection, schedule: Q01DX009 (ip), vehicle: saline with Tween-80 108 % of control | dose: 50.0 mg/kg/injection, schedule: Q01DX009 (ip), vehicle: saline with Tween-80 113 % of control | [18] 97 % of control | [19] 91 % of control

CCCCCCCCCCNC(=O)C[n+]1cccc(C(=O)Nc2ccccc2)c1
inactive: dose: 3.12 mg/kg/injection, schedule: Q01DX009 (ip), vehicle: saline with Tween-80 100 % of control | dose: 6.25 mg/kg/injection, schedule: Q01DX009 (ip), vehicle: saline with Tween-80 105 % of control | dose: 12.5 mg/kg/injection, schedule: Q01DX009 (ip), vehicle: saline with Tween-80 88 % of control | dose: 12.5 mg/kg/injection, schedule: Q04DX003 (ip), vehicle: saline 103 % of control | dose: 25.0 mg/kg/injection, schedule: Q04DX003 (ip), vehicle: saline 88 % of control

CC#N.CC#N.[Cl][Pt][Cl]
inactive: dose: 6.25 mg/kg/injection, schedule: Q04DX003 (ip), vehicle: water 119 % of control | dose: 12.5 mg/kg/injection, schedule: Q04DX003 (ip), vehicle: water 117 % of control | dose: 25.0 mg/kg/injection, schedule: Q04DX003 (ip), vehicle: water 122 % of control | dose: 50.0 mg/kg/injection, schedule: Q04DX003 (ip), vehicle: water 118 % of control

CC1(C)C(OS(C)(=O)=O)C(C)(C)C1OS(C)(=O)=O (stereo not drawn)
inactive: [10] 111 % of control | [11] 121 % of control | dose: 100.0 mg/kg/injection, schedule: Q01DX001 (sc), vehicle: carboxymethylcellulose (CMC) 108 % of control | [12] 100 % of control | dose: 200.0 mg/kg/injection, schedule: Q01DX001 (sc), vehicle: carboxymethylcellulose (CMC) 108 % of control | [13] 100 % of control | dose: 400.0 mg/kg/injection, schedule: Q01DX001 (sc), vehicle: carboxymethylcellulose (CMC) 100 % of control

CCCCNCCN(CC)CC
inactive: dose: 100.0 mg/kg/injection, schedule: Q04DX003 (ip), vehicle: saline with Tween-80 98 % of control

O=C(Nc1ccc(Br)cc1)Oc1ccc(Nc2ccccc2)cc1
inactive: [4] 98 % of control | [6] 89 % of control | [8] 98 % of control

C1CCC2(CC1)CN2
inactive: dose: 25.0 mg/kg/injection, schedule: Q01DX009 (ip), vehicle: saline 103 % of control | dose: 50.0 mg/kg/injection, schedule: Q01DX009 (ip), vehicle: saline 100 % of control | [14] 97 % of control | dose: 100.0 mg/kg/injection, schedule: Q01DX009 (ip), vehicle: saline 104 % of control

CC(C)(N)C(=O)O
inactive: [19] 101 % of control | [20] 98 % of control | [21] 98 % of control

Nc1ccc(NC(=O)Nc2ccccc2)cc1
inactive: [1] 101 % of control | [2] 90 % of control | [3] 101 % of control

CCCCCOc1ccc(Nc2c3ccccc3nc3ccccc23)cc1
inactive: [16] 102 % of control | [17] 111 % of control | dose: 400.0 mg/kg/injection, schedule: Q01DX001 (ip), vehicle: Klucel (hydroxypropylcellulose) (HPC) 107 % of control

CSc1ncnc2c1ncn2C1CCCO1 (stereo not drawn)
inactive: dose: 37.5 mg/kg/injection, schedule: Q01DX Z (ip), vehicle: methylcellulose (MC) 101 % of control | dose: 75.0 mg/kg/injection, schedule: Q01DX Z (ip), vehicle: methylcellulose (MC) 111 % of control

NNC(=O)CCc1ccccc1[N+](=O)[O-]
inactive: dose: 40.0 mg/kg/injection, schedule: Q04DX003 (ip), vehicle: saline 108 % of control | dose: 75.0 mg/kg/injection, schedule: Q01DX001 (ip), vehicle: saline 93 % of control | dose: 75.0 mg/kg/injection, schedule: Q04DX003 (ip), vehicle: saline 98 % of control | dose: 150.0 mg/kg/injection, schedule: Q01DX001 (ip), vehicle: saline 96 % of control | dose: 150.0 mg/kg/injection, schedule: Q04DX003 (ip), vehicle: saline 101 % of control

NSc1nc2ccccc2s1
inactive: [18] 95 % of control | [19] 105 % of control | dose: 200.0 mg/kg/injection, schedule: Q01DX009 (ip), vehicle: saline with Tween-80 93 % of control | [20] 96 % of control | [21] 107 % of control

O=[N+]([O-])c1ccc(-c2cnc(Nc3ccc(Cc4ccc(Nc5ncc(-c6ccc([N+](=O)[O-])cc6)s5)c(Cl)c4)cc3Cl)s2)cc1
inactive: [5] 98 % of control | [7] 106 % of control | [9] 98 % of control

O=C(/N=N/C(=O)Oc1ccccc1)Oc1ccccc1
inactive: [14] 98 % of control | [15] 101 % of control | dose: 400.0 mg/kg/injection, schedule: Q01DX001 (ip), vehicle: saline 98 % of control

CNC(c1ccncc1)C(NC)c1ccncc1 (stereo not drawn)
inactive: [4] 94 % of control | [5] 95 % of control | [6] 91 % of control | [7] 95 % of control | [8] 96 % of control | [9] 95 % of control
